Common to all, as to format: in vivo, C57BL/6 mice
Test [1] concerns desiccating stress-induced dry eye (experimental dry eye; EDE). The experiment in a line: Tear film break-up time (TBUT) in mouse model of desiccating stress-induced dry eye. The settings on record: EDE mice, 5% Lifitegrast or 0.1% SEQ ID NO:1, 2 μL eye drops three times a day, five and 10-day endpoints, vs untreated dry eye (vehicle). Here is the method:
(§1) The following Methods were used to evaluate the efficacy, anti-inflammatory activity and the therapeutic potential of a peptide inhibitor of trans-endothelial migration peptide compared with 5% Lifitegrast in a mouse model of desiccating stress-induced dry eye (experimental dry eye; EDE).
(§2) Desiccating stress was induced in six to eight-week-old female C57BL/6 mice by subcutaneous injection of 0.5 mg/0.2 mL scopolamine hydrobromide (Sigma-Aldrich, St. Louis, Mo.) three times a day ([…] given at 4.5 hr. intervals) with exposure to an air draft and 30% ambient humidity), which was maintained throughout the dosing period. During these experiments, the animals' behavior, food, and water intake were not restricted. Treatment was terminated and testing was conducted at endpoints of either five or ten days.
Each treatment group comprised 5 animals (n=10 eyes/group) randomly assigned. The groups were treated topically as follows: • 1. Untreated (Normal) control mice that were not exposed to desiccating stress or treated topically • 2. EDE mice treated with balanced salt solution (BSS, vehicle, Alcon, Fort Worth, Tex.) • 3. EDE mice treated with 5% (wt) Lifitegrast (Shire Plc) • 4. […]
All treatment groups received 2 μL eye drops three times a day. The mice in each treatment group: EDE treated with BSS, EDE treated with 5% Lifitegrast, and EDE treated with 0.1% SEQ ID NO:1 were dosed/treated three times/day with 2 uL eye drops of each treatment, respectively (except Normal group). […]
After three blinks, tear film break-up time (BUT) was recorded in seconds using slit lamp biomicroscopy (BQ-900; Haag-Streit, Bern, Switzerland) under cobalt blue light. […]
Tear Film Break-up: This experiment evaluated the anti-inflammatory activity and efficacy of the peptide inhibitor of trans-endothelial migration peptide in ameliorating Desiccation-induced Dry Eye (DED). Eyes were evaluated for time for dry spots to appear on the corneal surface of the eye after blinking. […] Subjects with normal tear quantity but an unstable tear film can explain dry eye symptoms. […]

For test [2] the test system is unchanged. The experiment in a line: Corneal fluorescein staining in mouse model of desiccating stress-induced dry eye. The following applies: EDE mice; 5% Lifitegrast or 0.1% SEQ ID NO:1, 2 μL eye drops three times a day; five and ten days; vs untreated dry eyes. Here is the method:
as §1, §2
Each treatment group comprised 5 animals (n=10 eyes/group) randomly assigned. […]
Ninety seconds after the fluorescein drops were added to measure TBUT, punctate staining on the corneal surface was evaluated in a masked fashion. Each cornea was divided into four quadrants that were scored individually. Corneal fluorescein staining severity score was calculated using a 4-point scale: 0=absent; 1=slightly punctate staining <30 spots; 2=punctate staining >30 spots, but not diffuse; 3=severe diffuse staining but no positive plaque; and 4=positive fluorescein plaque. […]

The subject of test [3] is CD4+ and CCR5+ T cells from the conjunctiva. The experiment in a line: Flow cytometry of activated T cells from the conjunctiva in murine dry eye model. The settings on record: EDE mice; 0.1% SEQ ID NO:1 eye drops three times a day; after 10 days; normal range 15% to 22%, normal control 18.86%. Here is the method:
as §1, §2
Each treatment group comprised 5 animals (n=10 eyes/group) randomly assigned. The groups were treated topically as follows: • 1. […]
Flow cytometry was performed for quantitation of CD4+ and CCR5+ T cells from the conjunctiva as previously described (Yoon K C, Heo H, Kang I S, et al. Cornea (2008) 27: 454-460). […]
The number of CD4+ and CCR5+ T cells was counted by a FACSCalibur cytometer with CellQuest software (BD Biosciences).
Eye conjunctiva was evaluated for the number of Activated T cells present in the conjunctiva for each group in the murine Dry Eye study. […]

“Also recorded” adds a separate entry of the source.

Take `CS(=O)(=O)c1cccc(C[C@H](NC(=O)c2c(Cl)cc3c(c2Cl)CCN(C(=O)c2ccc4ccoc4c2)C3)C(=O)O)c1` [Lifitegrast, reference compound]: the “tear film break-up time” value in test [1] is listed as “can ameliorate induced dry eye; also recorded: can ameliorate DED”. The “corneal fluorescein staining grade (corneal disruptions)” value in test [2] is reported as “improved corneal disruptions”.

Consider “H-Ser-Val-Thr-Glu-Gln-Gly-Ala-Glu-Leu-Ser-Asn-Glu-Glu-Arg-NH2 (H-SVTEQGAELSNEER-NH2) [SEQ ID NO:1]”, for which the “tear film break-up time” value in test [1] was “noticeably improved tear film times at both endpoints”; in test [1] (listed as peptide inhibitor of trans-endothelial migration peptide) it was “noticeably improved tear film times at both intervals”. Further, in test [2], the “corneal fluorescein staining grade (corneal disruptions)” value was “improved corneal disruptions”. For the same compound, the “percentage of Activated T Cells within the conjunctiva” value in test [3] is 21.67%.

These data come from US11524045B2, “Peptides for dry eye disease” (ALLYSTA PHARMACEUTICALS, INC., priority 2017, dated 2022).
